From ChEMBL document CHEMBL3272295, “Drugs derived from cannabinoids. 5. delta6a,10a-Tetrahydrocannabinol and heterocyclic analogs containing aromatic side chains” (J Med Chem, 1976)
Active and inactive are the calls of the source. The rule behind the calls is not given here.

Columns and labels:
[1] = system: Rattus norvegicus; assay: (§1) Antidiarrheal activity in Charles River rat assessed as inhibition of castor oil-induced diarrhea by measuring protected animals at 0.2 mg/kg, po administered for 5 days followed by 0.2 mg/kg, po on test day administered 1 hr prior to castor oil challenge measured after 1 hr relative to vehicle-treated control; format: functional
[2] = system: Rattus norvegicus; assay: Increase in pepsin output in Sprague-Dawley rat at 50 mg/kg, po administered 30 mins prior to pylorus ligation measured after 4 hrs relative to control; format: functional
[3] = system: Rattus norvegicus; assay: Increase in pepsin concentration in Sprague-Dawley rat at 50 mg/kg, po administered 30 mins prior to pylorus ligation measured after 4 hrs relative to control; format: functional
[4] = system: Rattus norvegicus; assay: Antihypertensive activity in spontaneously hypertensive rat model assessed as reduction in blood pressure at 10 mg/kg, po after 3 hrs; format: functional; design: scale not given: the % may be the effect or the level left
[5] = system: Rattus norvegicus; assay: Antihypertensive activity in spontaneously hypertensive rat model assessed as reduction in blood pressure at 25 mg/kg, po after 24 hrs; format: functional; design: scale not given: the % may be the effect or the level left
[6] = system: Rattus norvegicus; assay: Antipsychotic activity in rat assessed as reduction of methamphetamine-induced hyperactivity at 5 mg/kg, po administered prior to methamphetamine challenge relative to vehicle-treated control; format: functional; design: scale not given: the % may be the effect or the level left
[7] = system: Rattus norvegicus; assay: Antisecretory activity in Sprague-Dawley rat assessed as decrease in acidity at 50 mg/kg, po administered 30 mins prior to pylorus ligation measured after 4 hrs relative to control; format: functional; design: scale not given: the % may be the effect or the level left
[8] = organism: Rattus norvegicus; assay: animal or person; format: functional; conditions: Charles River, route oral
Description: Antidiarrheal activity in Charles River rat assessed as inhibition of castor oil-induced diarrhea by measuring protected animals at 0.5 mg/kg, po administered 1 hr prior to castor oil challenge measured after 1 hr relative to vehicle-treated control

[9] = Acute toxicity in po dosed mouse; format: organism-based; conditions: in vivo
[10] = system: Rattus norvegicus; assay: Antisecretory activity in Sprague-Dawley rat assessed as decrease in acid output at 50 mg/kg, po administered 30 mins prior to pylorus ligation measured after 4 hrs relative to control; format: functional; design: scale not given: the % may be the effect or the level left
[11] = system: Rattus norvegicus; assay: Increase in volume in Sprague-Dawley rat at 50 mg/kg, po administered 30 mins prior to pylorus ligation measured after 4 hrs relative to control; format: functional
[12] = system: Felis catus; assay: Hypnotic activity in cat assessed as increase in total sleep time at 1 mg/kg administered orally through diet measured for 12 hrs by EEG analysis; format: functional; conditions: route oral
[13] = system: Felis catus; assay: Hypnotic activity in cat assessed as increase in non-REM sleep time at 1 mg/kg administered orally through diet measured for 12 hrs by EEG analysis; format: functional; conditions: route oral
[14] = system: Canis familiaris; assay: Antianxiety activity in po dosed dog assessed as ataxia administered as single dose measured up to 24 hrs; format: functional; conditions: Canis lupus familiaris, read-out: MED
[15] = system: Rattus norvegicus; assay: Antihypertensive activity in spontaneously hypertensive rat model assessed as reduction in blood pressure at 10 mg/kg, po after 24 hrs; format: functional; design: scale not given: the % may be the effect or the level left
[16] = system: Rattus norvegicus; assay: Antipsychotic activity in rat assessed as reduction of methamphetamine-induced hyperactivity at 10 mg/kg, po administered prior to methamphetamine challenge relative to vehicle-treated control; format: functional; design: scale not given: the % may be the effect or the level left
[17] = system: Mus musculus; assay: Anticonvulsant activity in po dosed mouse assessed as dose required to protect 80% of animal measured after 1 to 4 hrs by audiogenic seizure test; format: functional
[18] = system: Felis catus; assay: Hypnotic activity in cat assessed as increase in total sleep time at 4 mg/kg administered orally through diet measured for 12 hrs by EEG analysis; format: functional; conditions: route oral
[19] = system: Rattus norvegicus; assay: Antianxiety activity in Long-Evans rat assessed as reduction in motor activity at 5 mg/kg, po after 2 hrs relative to vehicle-treated control; format: functional; design: scale not given: the % may be the effect or the level left
[20] = system: Rattus norvegicus; assay: Antihypertensive activity in spontaneously hypertensive rat model assessed as reduction in blood pressure at 25 mg/kg, po after 3 hrs; format: functional; design: scale not given: the % may be the effect or the level left
[21] = system: Rattus norvegicus; assay: Antianxiety activity in Long-Evans rat assessed as reduction in motor activity at 20 mg/kg, po after 2 hrs relative to vehicle-treated control; format: functional; design: scale not given: the % may be the effect or the level left
[22] = system: Rhesus monkey; assay: Antianxiety activity in po dosed rhesus monkey assessed as antiagressive behavior measured every hour post dosing; format: functional; conditions: Macaca mulatta, read-out: MED
[23] = system: Mus musculus; assay: Antianxiety activity in albino BALB/cJ mouse assessed as reduction in footshock-induced fighting behavior at 10 mg/kg, po after 30 to 90 mins; format: functional; design: scale not given: the % may be the effect or the level left
[24] = system: Mus musculus; assay: Analgesic activity in po dosed mouse assessed as inhibition of acetic acid-induced writhing administered 30 mins prior to acetic acid challenge measured after 5 mins for 20 mins; format: functional
[25] = system: Felis catus; assay: Hypnotic activity in cat assessed as decrease in non-REM sleep time at 4 mg/kg administered orally through diet measured for 12 hrs by EEG analysis; format: functional; conditions: route oral
[26] = system: Mus musculus; assay: Antidepressant activity in mouse assessed as potentiation of DOPA-induced effect at 5 mg/kg, po administered 4 hrs prior to DOPA challenge; format: functional, organism-based; design: dose 5 mg/kg
[27] = system: Rattus norvegicus; assay: Antisecretory activity in Sprague-Dawley rat assessed as decrease in volume at 50 mg/kg, po administered 30 mins prior to pylorus ligation measured after 4 hrs relative to control; format: functional; design: scale not given: the % may be the effect or the level left
[28] = system: Felis catus; assay: Hypnotic activity in cat assessed as decrease in non-REM sleep time at 0.5 mg/kg administered orally through diet measured for 12 hrs by EEG analysis; format: functional; conditions: route oral
[29] = system: Rattus norvegicus; assay: Analgesic activity in po dosed Sprague-Dawley rat after 15 to 90 mins by tail flick test; format: functional
[30] = system: Rattus norvegicus; assay: Antihypertensive activity in spontaneously hypertensive rat model assessed as reduction in blood pressure at 0.3 mg/kg, po after 3 hrs; format: functional; design: scale not given: the % may be the effect or the level left
[31] = system: Rattus norvegicus; assay: Antidiarrheal activity in Charles River rat assessed as inhibition of castor oil-induced diarrhea by measuring protected animals at 0.05 mg/kg, po administered 1 hr prior to castor oil challenge measured after 1 hr relative to vehicle-treated control; format: functional
[32] = system: Rattus norvegicus; assay: Antisecretory activity in Sprague-Dawley rat assessed as decrease in pepsin output at 50 mg/kg, po administered 30 mins prior to pylorus ligation measured after 4 hrs relative to control; format: functional; design: scale not given: the % may be the effect or the level left
[33] = system: Rattus norvegicus; assay: Antidiarrheal activity in Charles River rat assessed as inhibition of castor oil-induced diarrhea by measuring protected animals at 0.1 mg/kg, po administered 1 hr prior to castor oil challenge measured after 1 hr relative to vehicle-treated control; format: functional
[34] = system: Rattus norvegicus; assay: as §1, with “at 0.5” for “at 0.2”, “for 2” for “for 5”, “by 1” for “by 0.2”; format: functional
[35] = system: Rattus norvegicus; assay: Antipsychotic activity in rat assessed as reduction of methamphetamine-induced hyperactivity at 0.5 mg/kg, po administered prior to methamphetamine challenge relative to vehicle-treated control; format: functional; design: scale not given: the % may be the effect or the level left
[36] = system: Rattus norvegicus; assay: Antihypertensive activity in spontaneously hypertensive rat model assessed as reduction in blood pressure at 0.3 mg/kg, po after 24 hrs; format: functional; design: scale not given: the % may be the effect or the level left
[37] = system: Felis catus; assay: Hypnotic activity in cat assessed as decrease in total sleep time at 0.5 mg/kg administered orally through diet measured for 12 hrs by EEG analysis; format: functional; conditions: route oral
[38] = system: Mus musculus; assay: Increase in footshock-induced fighting behavior in albino BALB/cJ mouse at 10 mg/kg, po after 30 to 90 mins; format: functional
[39] = system: Felis catus; assay: Hypnotic activity in cat assessed as increase in non-REM sleep time at 2 mg/kg administered orally through diet measured for 12 hrs by EEG analysis; format: functional; conditions: route oral
[40] = system: Rattus norvegicus; assay: Antipsychotic activity in rat assessed as reduction of methamphetamine-induced hyperactivity at 2 mg/kg, po administered prior to methamphetamine challenge relative to vehicle-treated control; format: functional; design: scale not given: the % may be the effect or the level left
[41] = system: Felis catus; assay: Hypnotic activity in cat assessed as increase in total sleep time at 2 mg/kg administered orally through diet measured for 12 hrs by EEG analysis; format: functional; conditions: route oral
[42] = system: Mus musculus; assay: Antianxiety activity in albino BALB/cJ mouse assessed as reduction in footshock-induced fighting behavior at 1 mg/kg, po after 30 to 90 mins; format: functional; design: scale not given: the % may be the effect or the level left
[43] = system: Rattus norvegicus; assay: Antisecretory activity in Sprague-Dawley rat assessed as decrease in pepsin concentration at 50 mg/kg, po administered 30 mins prior to pylorus ligation measured after 4 hrs relative to control; format: functional; design: scale not given: the % may be the effect or the level left
[44] = system: Mus musculus; assay: Antidepressant activity in po dosed mouse assessed as potentiation of DOPA-induced effect administered 4 hrs prior to DOPA challenge; format: functional; conditions: read-out: MED
[45] = system: Mus musculus; assay: Antianxiety activity in albino BALB/cJ mouse assessed as reduction in footshock-induced fighting behavior at 5 mg/kg, po after 30 to 90 mins; format: functional; design: scale not given: the % may be the effect or the level left
[46] = system: Rattus norvegicus; assay: as §1, with “0.5” for “0.2”, “2” for “5”; format: functional
[47] = system: Rattus norvegicus; assay: Antihypertensive activity in spontaneously hypertensive rat model assessed as reduction in blood pressure at 1 mg/kg, po after 3 hrs; format: functional; design: scale not given: the % may be the effect or the level left
[48] = system: Rattus norvegicus; assay: Antidiarrheal activity in Charles River rat assessed as inhibition of castor oil-induced diarrhea by measuring protected animals at 0.2 mg/kg, po administered 1 hr prior to castor oil challenge measured after 1 hr relative to vehicle-treated control; format: functional
[49] = system: Rattus norvegicus; assay: as §1, with “0.5” for “0.2”; format: functional
[50] = system: Rattus norvegicus; assay: Antihypertensive activity in spontaneously hypertensive rat model assessed as reduction in blood pressure at 1 mg/kg, po after 24 hrs; format: functional; design: scale not given: the % may be the effect or the level left

SMILES | Activity [6] [%] | Activity [7] [%] | inhibition in vivo at 0.5 mg/kg [8] [%] | LD50 [9] [mg/kg] | Activity [10] [%] | minimal effective dose [14] [mg/kg] | Activity [17] [mg/kg] | Activity [19] [%] | minimal effective dose [22] [mg/kg] | ED50 [24] [mg/kg] | Activity [27] [%] | Activity [30] [%] | inhibition in vivo at 0.05 mg/kg [31] [%] | Activity [32] [%] | inhibition in vivo at 0.1 mg/kg [33] [%] | inhibition (INH) [34] [%] | Activity [35] [%] | Activity [36] [%] | Activity [40] [%] | Activity [43] [%] | further results
CCOC(=O)C1(c2ccccc2)CCN(CCC(C#N)(c2ccccc2)c2ccccc2)CC1 [DIPHENOXYLATE] | – | – | – | – | – | – | – | – | – | – | – | – | – | – | – | – | – | – | – | – | inhibition in vivo at 0.2 mg/kg [1]: 90%
CCCCCc1cc(O)c2c(c1)OC(C)(C)[C@@H]1CCC(C)=C[C@@H]21 [DRONABINOL] | 15 | 7.5 | 0 | ≥ 1000 | 7.3 | 0.5 | 20 | 14 | 1 | 43 | – | – | – | – | – | – | – | – | – | – | Activity [2]: 8.9%; Activity [3]: 8.2%; Activity [4]: 6%; Activity [5]: 21%; Activity [11]: 0.7%; Time [12]: 29 min; Time [13]: 1 min; Activity [15]: 8%; Activity [16]: 41%; Time [18]: 17 min; Activity [20]: 39%; Activity [21]: 72%; Activity [23]: 68%; Time [25]: -3 min; Activity [26]: Active
CC1CCC2=C(C1)c1c(O)cc(C(C)CCCc3ccc(F)cc3)cc1OC2(C)C (stereo not drawn) | – | 7.8 | 70 | ≥ 1000 | 39.6 | 0.5 | 30 | 90 | 0.1 | 8.3 | 35.5 | 31 | 0 | 43.7 | 50 | 0 | 30 | 12 | 70 | 11.4 | Time [28]: -4 min; ED50 [29]: 5.9 mg/kg; Time [37]: -22 min; Activity [38]: 26%; Time [39]: 94 min; Time [41]: 126 min; Activity [42]: 60%; minimal effective dose [44]: 10 mg/kg; Activity [45]: 92%; inhibition in vivo at 0.5 mg/kg [46]: 0%
CC1CCC2=C(C1)c1c(O)cc(C(C)C(C)CCc3ccc(F)cc3)cc1OC2(C)C (stereo not drawn) | 89 | 13.4 | – | 750 | 53.1 | 1 | – | 66 | – | 4.5 | 45.6 | 13 | 40 | 56.4 | 60 | 0 | 58 | 10 | 62 | 20.8 | Activity [47]: 27%; inhibition in vivo at 0.2 mg/kg [48]: 90%; inhibition in vivo at 0.5 mg/kg [49]: 0%; Activity [50]: 12%; Activity [45]: 0%; inhibition in vivo at 0.5 mg/kg [46]: 0.5%
